Key:
[1] = tested on: MDA-MB-231 cells; experiment: Flow cytometry, western blotting and RT-PCR, MDA-MB-231 cells; assay type: cell-based, human
Procedure: 1.1.3 Flow cytometry—Cell cycle distribution was examined using flow cytometry. Briefly, cells were harvested by trypsinization, fixed in 70% ethanol at 4° C. overnight, and then resuspended in PBS. After incubation at 4° C. for overnight, 2×10^6 cells were incubated with in 20 μg/ml propidium iodide (PI) and 2 mg RNaseA for 15 minutes at 37° C. Cells were then examined by BD SLRII cytometer and the results were analyzed using ModFit software (Becton Dickinson, Mountain View, Calif.). Data were expressed as the percentage of cell cycle distribution in the entire population.
1.1.5 Western blotting—Detailed protocols have been described previously and are known in the art. Briefly, cell lysates were prepared by suspending cell pellets in lysis buffer [50 mmol/l Tris-HCl (pH 8.0), 150 mmol/l NaCl, 1% NP40, 0.5% deoxycholate, 0.1% SDS, 1 mg/ml aprotinin, 1 μg/ml leupeptin and 1 mmol/l phenylmethylsulfonyl fluoride]. For nuclear protein extraction, NucBuster™ protein extraction kit was used. Protein concentration was measured using the DC Protein Assay kit (Bio-Rad, Hercules, Calif.). Equal amount of protein (30 μg) was loaded onto a 10% SDS polyacrylamide gel for electrophoresis and then transferred onto a polyvinylidene difluoride membrane (Amersham, Piscataway, N.J.). The membrane was then incubated with primary antibodies for 1 hr at room temperature against E-cadherin (BD Biosciences, Bedford, Mass.), α-catenin, β-catenin, γ-catenin, Id-1, Id-3, EGFR, phosphor-c-jun, phosphor-ATF2, cleaved PARP, vimentin, α-smooth muscle actin, twist (Santa Cruz Biotechnology, Calif.), phosphor-IkB-alpha (Ser32/36), phosphor-IKK alpha (Seri 80)/IKK beta (Ser181), phosphor-SAPK/JNK (Thr183/Tyr185) G9, SAPK/JNK, NF-kB p65 (5A5) (Cell Signaling Technology Inc, Beverly, Mass.), Snail (Abcam). After incubation with appropriate secondary antibodies, signals were visualized by ECL western blotting system (Amersham, Piscataway, N.J.). Expression of β-actin and histone H1 were assessed as an internal loading control for total cell lysate and nuclear protein lysate respectively.
3.1.5 DNA fragmentation assay—After 24 hrs incubation with gamma-T3, 3×10^6 MDA-MB-231 cells were harvested and suspended in lysis buffer [5 mM Tris-HCl (pH 8.0), 20 mM EDTA, and 0.5% (v/v) Triton X-100] for 60 min on ice. Samples were centrifuged, the supernatants were removed and incubated with 5 μl RNase A (10 μg/ml) at 37° C. for 40 min, and 1 ml of anhydrous ethanol was added. Tubes were placed at […] for 20 min and then centrifuged to pellet the DNA. DNA samples were analyzed by electrophoresis at 80 V for 3 hrs on a 2% agarose gel containing ethidium bromide (0.2 μg/ml) and visualized under UV illumination.
3.1.6 Terminal deoxynucleotidyltransferase-mediated deoxyuridine triphosphate nick end-labelling (TUNEL) assay—DNA strand breaks during apoptosis was examined using in situ cell death detection reagent (Roche Applied Science). Briefly, 1×10^6 cells were pretreated with gamma-T3 for 24 hrs. Thereafter, cells were incubated with reaction mixture for 60 min at 37° C. Stained cells were analyzed and captured by fluorescence microscope on glass slide.
3.1.7 Flow cytometry was carried out as described above under item 1.1.3. Matrigel-invasion assay was carried out as described above under item 1.1.4. Western blotting was carried out as described above under item 1.1.5.
3.1.8 Id-1 RT-PCR—Total RNA was isolated using Trizol® reagent according to the manufacturer's protocol (Invitrogen). cDNA was synthesized using the SuperScript™ First Strand Synthesis System (Invitrogen) and was then amplified by PCR with Id-1 specific primers (forward primer, Id1-S, 5′-CTCCAGCACGTCATCGACTA-3′ and reverse primer, Id1-AS,5′-AAC GCA TGC CGC CTC-3′). PCR cycling protocol was as follows: 30 cycles of 10 min at 95° C., 30 s at 95° C., 30 s at 55° C., 1 min at 72° C. and 10 min at 72° C. Glyceraldehyde 3-phosphate dehydrogenase was amplified as an internal control. […]

[2] = Single acute toxicity test (MTD); assay type: in vivo, C57BL/6 black mice; conditions: single dose i.p., 30-day observation
Procedure: 4.1.5 Single Acute Toxicity Test—The maximum tolerated dose (MTD) was determined by increasing doses on different groups of mice until the highest dose without any mortality is found. Briefly, ninety C57BU6 black mice (ten for each group) received single dose i.p injection containing 1, 2, 4, 8, 12, 16, 20, 30 and 40 mg of γ-T3 in 100 μl injection volume.

[3] = tested on: DU145 cells; experiment: Western blotting of CD44, DU145 cells; assay type: cell-based; conditions: doses with minimum effect on viability
Procedure: (§1) 5.1.5 Western blotting was carried out as described above under 1.1.5. The membrane was incubated with primary antibodies directed against CD133 (Miltenyi Biotec, Auburn, Calif.), Bcl-2, PARP, cleaved caspase 3, 7, 9 (Cell Signaling, Technology Inc, Beverly, Mass.), CD44 and β-actin (Santa Cruz Biotechnology, Santa Cruz, Calif.). After washing with TBS-T, the membrane was incubated with secondary antibody against either mouse or rabbit IgG and the signals were visualized using ECL plus western blotting system (Amersham, Piscataway, N.J.).

[4] = tested on: MGH-U1 cells; experiment: Western blotting of CD44, MGH-U1 cells; assay type: cell-based; conditions: bladder cancer cells
Procedure: as §1

With `CC(C)=CCC/C(C)=C/CC/C(C)=C/CCC1(C)CCc2cc(O)c(C)c(C)c2O1` (centres unmarked) [γ-T3, 7,8-dimethyltocotrienol] the JNK phosphorylation ([1]; MDA-MB-231) was “dose-dependent increase in JNK phosphorylation activities”, the “Src phosphorylation, protein level of Smad1/5/8, LOX and activated Fak” value ([1]; MDA-MB-231) was “repressed in a dose dependent manner” and the “expression of Snail and Twist” value ([1]; MDA-MB-231) was “downregulated”. The “nuclear level of NF-κB p65” value ([1]; MDA-MB-231) was “suppressed nuclear level of NF-κB p65 in a dose-dependent manner”, the “MAPK/ERK pathway (phosphorylation of Erk1/2, Mek1/2 and Elk1)” value ([1]; MDA-MB-231, 24 hours) was “activated” and the “activation of pro-apoptotic proteins (cleaved products)” value ([1]; MDA-MB-231, 24 hrs) was “activation of procaspase 3, 7, 8, 9 as well as PARP”. For the same compound, the “Id1 and Id3 expressions (EGF-R similar)” value ([1]; MDA-MB-231, increasing dosages) was “significantly suppressed to almost undetectable level”, the “sub-G1 cell population (flow cytometry)” value ([1]; gamma-T3 IC50-90, 24 hrs) was “induction of sub-G1 cell population” and the “maximum tolerated dose (MTD)” value [2] was 12 mg. The CD44 expression [3] was “suppression of CD44 expression” and the CD44 expression [4] was “downregulate CD44 expression”.

Source: US20110195910A1, “USE OF TOCOTRIENOL COMPOSITION FOR THE PREVENTION OF CANCER” (DAVOS LIFE SCIENCE PTE. LTD., priority 2008, published 2011)
